From US20250250230A1, “HETEROCYCLIC COMPOUND” (TAKEDA PHARMACEUTICAL COMPANY LIMITED, priority 2022, published 2025)

Assays:
[1] = biological target: T1, human orexin type 2 receptor (Homo sapiens, UniProt O43614); experiment: Measurement of orexin type 2 receptor agonist activity (calcium fluorescence, Fluo-4 AM, FDSS); assay type: cell-based; settings: test compound 3 μM; CHO cells expressing human OX2 receptor; DMSO = 0%, orexin A (human) = 100%
T1 construct: expressed in transfected cells
T1 sequence (O43614 1-444): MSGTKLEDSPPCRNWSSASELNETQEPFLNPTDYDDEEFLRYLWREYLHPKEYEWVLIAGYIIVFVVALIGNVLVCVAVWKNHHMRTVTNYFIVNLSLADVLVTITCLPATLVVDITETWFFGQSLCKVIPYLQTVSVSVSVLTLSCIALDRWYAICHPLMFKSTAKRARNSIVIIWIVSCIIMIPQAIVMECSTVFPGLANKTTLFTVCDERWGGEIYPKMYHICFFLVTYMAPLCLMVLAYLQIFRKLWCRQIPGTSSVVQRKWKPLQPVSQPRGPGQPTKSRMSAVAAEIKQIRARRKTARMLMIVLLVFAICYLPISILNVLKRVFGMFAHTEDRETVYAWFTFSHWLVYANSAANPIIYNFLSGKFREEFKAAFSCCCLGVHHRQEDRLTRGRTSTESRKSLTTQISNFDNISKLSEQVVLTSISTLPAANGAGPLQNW
Outline: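 Agonist response scaled between vehicle (0%) and human orexin A at 10 nM final (100%), from 2-min kinetic Fluo-4 fluorescence reads. Stable hOX2R CHO-K1 clone, dye-loaded in HBSS/20 mM HEPES/0.1% BSA with 1.25 mM probenecid before compound addition.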

cynomolgus monkeys = experiment: Evaluation of wake-promoting effects in cynomolgus monkeys (EEG/EMG); assay type: in vivo, cynomolgus monkey; settings: 10 mg/kg p.o. at ZT12, time spent in wakefulness for 4 h after administration, male cynomolgus monkeys, n=2
Procedure: The wake-promoting effects were evaluated by measuring the electroencephalogram (EEG) and electromyogram (EMG) in cynomolgus monkeys. Under isoflurane anesthesia (0.5-5%, Pfizer Japan Inc., Tokyo, Japan), male cynomolgus monkeys (2-3 years old, Hamri Co., Ltd., Ibaraki, Japan) were surgically implanted with radio-telemetry transmitters (L03-F3, Data Sciences International Inc., MN, USA). EEG electrodes were screwed into the skull at the parietal area. EMG electrodes were implanted on the cervical muscles. After the surgery, each monkey was given penicillin (100,000 units/head, i.m., Meiji Seika Pharma Co., Ltd., Tokyo, Japan), buprenorphine (0.02 mg/kg, i.m., Otsuka Pharmaceutical Co., Ltd., Tokyo, Japan) and prednisolone (1 mg/kg, s.c., Kyoritsu Seiyaku Co., Ltd., Tokyo, Japan) daily for one week. After at least a 1-month recovery period in home cages, the monkeys were habituated to the recording chamber placed in a soundproof room. EEG and EMG signals were recorded using the telemetry system (Ponemah software, Data Sciences International Inc., MN, USA) and the signals were analyzed using SleepSign software (Kissei Comtec Co., Ltd., Nagano, Japan). After confirming long sleep in dark phase in the experimental room, we used animals to examine the wake-promoting effect of compounds. Test compounds (10 mg/kg) suspended in 0.5% methylcellulose aqueous solution, or vehicle (i.e., 0.5% methylcellulose aqueous solution) was administered orally (p.o.) to monkeys at zeitgeber time 12 (ZT12) in a volume of 5 mL/kg body weight in pre-post design (n=2). EEG and EMG recordings were performed for 4 h after the compound administration. The time spent in wakefulness for 4 h after administration (% of vehicle treatment) was calculated by using SleepSign.

Molecule	OX2R agonist activity (3 μM, %) [1] [%]	Wakefulness time (% of vehicle treatment) (Mean) (cynomolgus monkeys)
C[C@H](NS(C)(=O)=O)[C@@H]1CCN1C(=O)[C@@H]1C[C@@]1(F)c1ccccc1-c1c(F)cccc1F [Example 353, N-[(1S)-1-{(2S)-1-[(1S,2S)-2-(2′,6′-difluoro [1,1′-biphenyl]-2-yl)-2-fluorocyclopropane-1-carbonyl]azetidin-2-yl}ethyl]methanesulfonamide]	102	397.50 % of vehicle treatment
C[C@@H]1CN(C(=O)[C@@H]2C[C@@]2(F)c2ccccc2-c2c(F)cccc2F)[C@@H]1CNS(C)(=O)=O [Example 358, N-({(2S,3R)-1-[(1S,2S)-2-(2′,6′-difluoro[1,1′-biphenyl]-2-yl)-2-fluorocyclopropane-1-carbonyl]-3-methylazetidin-2-yl}methyl)methanesulfonamide]	96	407.11 % of vehicle treatment
CS(=O)(=O)NCC1CCN(C(=O)[C@@H]2C[C@@]2(F)c2ccccc2-c2c(F)cccc2F)C1 (stereo partly drawn) [Example 450, N-({(3R)-1-[(1S,2S)-2-(2′,6′-difluoro[1,1′-biphenyl]-2-yl)-2-fluorocyclopropane-1-carbonyl]pyrrolidin-3-yl}methyl)methanesulfonamide, or N-({(3S)-1-[(1S,2S)-2-(2′,6′-difluoro[1,1′-biphenyl]-2-yl)-2-fluorocyclopropane-1-carbonyl]pyrrolidin-3-yl}methyl)methanesulfonamide]	96	–
N-({(2S,3R)-1-[(1R,2R)-2-fluoro-2-(2′- fluoro[1,1′-biphenyl]-2- yl)cyclopropane-1-carbonyl]-3- methylazetidin-2- yl}methyl)ethanesulfonamide, or N- ({(2S,3R)-1-[(1S,2S)-2-fluoro-2-(2′- fluoro[1,1′-biphenyl]-2- yl)cyclopropane-1-carbonyl]-3- methylazetidin-2- yl}methyl)ethanesulfonamide [Example 439]	107	–

Further lines, with some results ahead:

OX2R agonist activity (3 μM, %) [1] [%]	Molecule	Wakefulness time (% of vehicle treatment) (Mean) (cynomolgus monkeys)
104	CCS(=O)(=O)NC[C@@H]1[C@H](F)CN1C(=O)[C@@H]1C[C@@]1(F)c1ccccc1-c1c(F)cccc1F [Example 393, N-({(2R,3R)-1-[(1S,2S)-2-(2′,6′-difluoro [1,1′-biphenyl]-2-yl)-2-fluorocyclopropane-1-carbonyl]-3-fluoroazetidin-2-yl}methyl)ethanesulfonamide]	731.96 % of vehicle treatment
95	Cc1ccc([C@]2(F)C[C@H]2C(=O)N2C[C@@H](F)[C@H]2CNS(C)(=O)=O)c(-c2c(F)cccc2F)c1 [Example 411, N-({(2R,3R)-1-[(1S,2S)-2-(2′,6′-difluoro-5-methyl [1,1′-biphenyl]-2-yl)-2-fluorocyclopropane-1-carbonyl]-3-fluoroazetidin-2-yl}methyl)methanesulfonamide]	361.41 % of vehicle treatment
111	CCS(=O)(=O)NC[C@@H]1[C@H](F)CN1C(=O)[C@@H]1C[C@@]1(F)c1ccc(F)cc1-c1c(F)cccc1F [Example 412, N-({(2R,3R)-3-fluoro-1-[(1S,2S)-2-fluoro-2-(2′,5,6′-trifluoro[1,1′-biphenyl]-2-yl)cyclopropane-1-carbonyl]azetidin-2-yl}methyl)ethanesulfonamide]	573.33 % of vehicle treatment
102	CNS(=O)(=O)NC[C@@H]1[C@H](F)CN1C(=O)[C@@H]1C[C@@]1(F)c1ccc(F)cc1-c1c(F)cccc1F [Example 423, N-({(2R,3R)-3-fluoro-1-[(1S,2S)-2-fluoro-2-(2′,5,6′-trifluoro[1,1′-biphenyl]-2-yl)cyclopropane-1-carbonyl]azetidin-2-yl}methyl)-N′-methylsulfuric Diamide]	391.59 % of vehicle treatment
94	O=C([C@@H]1C[C@@]1(F)c1ccc(F)cc1-c1c(F)cccc1F)N1C[C@@H](F)[C@H]1CNS(=O)(=O)C(F)(F)F [Example 449, 1,1,1-trifluoro-N-({(2R,3R)-3-fluoro-1-[(1S,2S)-2-fluoro-2-(2′,5,6′-trifluoro[1,1′-biphenyl]-2-yl)cyclopropane-1-carbonyl]azetidin-2-yl}methyl)methanesulfonamide]	–
